Experimental data from PubChem BioAssay (NCI).
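Values below derive from 48-hour exposures of cells grown in 96-well plates, with endpoints linearly interpolated between the two concentrations bracketing the appropriate inhibition level. TGI is the concentration that stops growth completely.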

How the values were obtained:
Experiment in all cases: NCI-60 cell line screen, 48 h
[1] = tested on: HT29 colon
[2] = tested on: HCT-116 colon
[3] = tested on: COLO 205 colon
[4] = tested on: KM20L2 colon
[5] = tested on: SK-OV-3 ovarian
[6] = tested on: OVCAR-5 ovarian
[7] = tested on: 786-0 renal
[8] = tested on: SK-MEL-2 melanoma
[9] = tested on: SF-268 CNS
[10] = tested on: DMS 114 small cell lung
[11] = tested on: OVCAR-3 ovarian
[12] = tested on: IGROV1 ovarian
[13] = tested on: TK-10 renal
[14] = tested on: ACHN renal
[15] = tested on: HL-60(TB) leukemia
[16] = tested on: MALME-3M melanoma
[17] = tested on: SNB-78 CNS
[18] = tested on: NCI-H522 lung
[19] = tested on: SF-295 CNS
[20] = tested on: CCRF-CEM leukemia
[21] = tested on: LOX IMVI melanoma
[22] = tested on: DLD-1 colon
[23] = tested on: U251 CNS
[24] = tested on: HCC-2998 colon
[25] = tested on: UACC-62 melanoma
[26] = tested on: SK-MEL-5 melanoma
[27] = tested on: OVCAR-8 ovarian
[28] = tested on: SF-539 CNS
[29] = tested on: A498 renal
[30] = tested on: KM12 colon
[31] = tested on: NCI-H23 lung
[32] = tested on: UO-31 renal
[33] = tested on: HOP-62 NSCLC
[34] = tested on: SN12C renal
[35] = tested on: RXF 393 renal
[36] = tested on: MOLT-4 leukemia
[37] = tested on: SK-MEL-28 melanoma
[38] = tested on: HCT-15 colon
[39] = tested on: NCI-H226 lung
[40] = tested on: K-562 leukemia
[41] = tested on: SNB-19 CNS
[42] = tested on: M19-MEL melanoma
[43] = tested on: XF 498 CNS
[44] = tested on: EKVX NSCLC
[45] = tested on: A549 NSCLC
[46] = tested on: SW-620 colon
[47] = tested on: SR leukemia
[48] = tested on: HOP-18 NSCLC
[49] = tested on: DMS 273 small cell lung
[50] = tested on: LXFL 529 NSCLC
[51] = tested on: RPMI-8226 leukemia
[52] = tested on: UACC-257 melanoma
[53] = tested on: M14 melanoma
[54] = tested on: SNB-75 CNS
[55] = tested on: HOP-92 NSCLC
[56] = tested on: NCI-H460 lung
[57] = tested on: OVCAR-4 ovarian
[58] = tested on: CAKI-1 renal
[59] = tested on: RXF-631 renal

Cc1c(C)c([N+](=O)[O-])c2c(c1N)C(=O)c1ccccc1C2=O
TGI [1]: > 100 µM
TGI [2]: > 100 µM
TGI [3]: > 100 µM
TGI [4]: > 100 µM
TGI [5]: > 100 µM
TGI [6]: > 100 µM
TGI [7]: > 100 µM
TGI [8]: > 100 µM
TGI [9]: > 100 µM
TGI [10]: > 100 µM
TGI [11]: > 100 µM
TGI [12]: > 100 µM
TGI [13]: > 100 µM
TGI [14]: > 100 µM
TGI [15]: > 100 µM
TGI [16]: > 100 µM
TGI [17]: > 100 µM
TGI [18]: > 100 µM
TGI [19]: > 100 µM
TGI [20]: > 100 µM
TGI [21]: > 100 µM
TGI [22]: > 100 µM
TGI [23]: > 100 µM
TGI [24]: > 100 µM
TGI [25]: > 100 µM
TGI [26]: > 100 µM
TGI [27]: > 100 µM
TGI [28]: > 100 µM
TGI [29]: > 100 µM
TGI [30]: > 100 µM
TGI [31]: > 100 µM
TGI [32]: > 100 µM
TGI [33]: > 100 µM
TGI [34]: > 100 µM
TGI [35]: > 100 µM
TGI [36]: > 100 µM
TGI [37]: > 100 µM
TGI [38]: > 100 µM
TGI [39]: > 100 µM
TGI [40]: > 100 µM
TGI [41]: > 100 µM
TGI [42]: > 100 µM
TGI [43]: > 100 µM
TGI [44]: > 100 µM
TGI [45]: > 100 µM
TGI [46]: > 100 µM
TGI [47]: > 100 µM
TGI [48]: > 100 µM
TGI [49]: > 100 µM
TGI [50]: > 100 µM
TGI [51]: > 100 µM
TGI [52]: > 100 µM
TGI [53]: > 100 µM
TGI [54]: > 100 µM
TGI [55]: > 100 µM

O=c1[nH]ccc(CNC23CC4CC(CC(C4)C2)C3)c1O
TGI [1]: > 100 µM
TGI [2]: > 100 µM
TGI [56]: > 100 µM
TGI [3]: > 100 µM
TGI [4]: > 100 µM
TGI [5]: > 100 µM
TGI [6]: > 100 µM
TGI [7]: > 100 µM
TGI [8]: > 100 µM
TGI [11]: > 100 µM
TGI [12]: > 100 µM
TGI [13]: > 100 µM
TGI [14]: > 100 µM
TGI [15]: > 100 µM
TGI [16]: > 100 µM
TGI [17]: > 100 µM
TGI [18]: 52.7 µM
TGI [19]: > 100 µM
TGI [20]: > 100 µM
TGI [22]: > 100 µM
TGI [23]: > 100 µM
TGI [24]: > 100 µM
TGI [25]: > 100 µM
TGI [26]: > 100 µM
TGI [27]: > 100 µM
TGI [28]: > 100 µM
TGI [29]: > 100 µM
TGI [30]: > 100 µM
TGI [31]: > 100 µM
TGI [32]: > 100 µM
TGI [33]: > 100 µM
TGI [57]: > 100 µM
TGI [34]: > 100 µM
TGI [35]: > 100 µM
TGI [36]: > 100 µM
TGI [38]: > 100 µM
TGI [58]: > 100 µM
TGI [39]: > 100 µM
TGI [40]: > 100 µM
TGI [41]: > 100 µM
TGI [42]: > 100 µM
TGI [43]: > 100 µM
TGI [44]: > 100 µM
TGI [45]: > 100 µM
TGI [46]: > 100 µM
TGI [47]: > 100 µM
TGI [48]: > 100 µM
TGI [49]: > 100 µM
TGI [50]: > 100 µM
TGI [51]: > 100 µM
TGI [52]: > 100 µM
TGI [53]: > 100 µM
TGI [54]: > 100 µM

Cc1cc(=O)[nH]c(NNC(C#N)c2cccc([N+](=O)[O-])c2)n1 (stereo unspecified)
TGI [1]: > 100 µM
TGI [2]: > 100 µM
TGI [56]: > 100 µM
TGI [3]: > 100 µM
TGI [4]: > 100 µM
TGI [5]: > 100 µM
TGI [6]: > 100 µM
TGI [7]: > 100 µM
TGI [8]: > 100 µM
TGI [9]: > 100 µM
TGI [10]: > 100 µM
TGI [11]: > 100 µM
TGI [12]: > 100 µM
TGI [13]: > 100 µM
TGI [14]: > 100 µM
TGI [15]: > 100 µM
TGI [16]: > 100 µM
TGI [17]: > 100 µM
TGI [18]: > 100 µM
TGI [19]: > 100 µM
TGI [20]: > 100 µM
TGI [21]: > 100 µM
TGI [22]: > 100 µM
TGI [23]: > 100 µM
TGI [25]: > 100 µM
TGI [26]: > 100 µM
TGI [27]: > 100 µM
TGI [28]: > 100 µM
TGI [30]: > 100 µM
TGI [31]: > 100 µM
TGI [32]: > 100 µM
TGI [33]: > 100 µM
TGI [57]: > 100 µM
TGI [34]: > 100 µM
TGI [35]: > 100 µM
TGI [36]: > 100 µM
TGI [37]: > 100 µM
TGI [38]: > 100 µM
TGI [58]: > 100 µM
TGI [39]: > 100 µM
TGI [40]: > 100 µM
TGI [42]: > 100 µM
TGI [45]: > 100 µM
TGI [46]: > 100 µM
TGI [47]: > 100 µM
TGI [48]: > 100 µM
TGI [49]: > 100 µM
TGI [50]: > 100 µM
TGI [51]: > 100 µM
TGI [52]: > 100 µM
TGI [53]: > 100 µM
TGI [54]: > 100 µM
TGI [55]: > 100 µM

CCOc1ccc(NC(=O)/C(CC(=O)c2c[n+](=O)c3ccccc3n2[O-])=N\OCCCc2ccccc2)cc1
TGI [1]: > 100 µM
TGI [2]: > 100 µM
TGI [56]: > 100 µM
TGI [3]: > 100 µM
TGI [4]: > 100 µM
TGI [5]: > 100 µM
TGI [6]: > 100 µM
TGI [7]: > 100 µM
TGI [8]: > 100 µM
TGI [9]: > 100 µM
TGI [10]: > 100 µM
TGI [11]: > 100 µM
TGI [12]: > 100 µM
TGI [13]: > 100 µM
TGI [14]: > 100 µM
TGI [15]: > 100 µM
TGI [16]: > 100 µM
TGI [17]: > 100 µM
TGI [18]: > 100 µM
TGI [19]: > 100 µM
TGI [20]: > 100 µM
TGI [22]: > 100 µM
TGI [23]: > 100 µM
TGI [24]: > 100 µM
TGI [25]: > 100 µM
TGI [27]: > 100 µM
TGI [28]: > 100 µM
TGI [29]: > 100 µM
TGI [30]: > 100 µM
TGI [31]: > 100 µM
TGI [32]: > 100 µM
TGI [33]: > 100 µM
TGI [57]: > 100 µM
TGI [34]: > 100 µM
TGI [35]: > 100 µM
TGI [36]: > 100 µM
TGI [37]: > 100 µM
TGI [38]: > 100 µM
TGI [58]: > 100 µM
TGI [39]: > 100 µM
TGI [40]: > 100 µM
TGI [41]: > 100 µM
TGI [42]: > 100 µM
TGI [44]: > 100 µM
TGI [45]: > 100 µM
TGI [46]: > 100 µM
TGI [47]: > 100 µM
TGI [49]: > 100 µM
TGI [50]: > 100 µM
TGI [51]: > 100 µM
TGI [52]: > 100 µM
TGI [53]: > 100 µM
TGI [54]: > 100 µM
TGI [55]: 99.6 µM
TGI [59]: > 100 µM
